According to DBAASP:
≈ marks a conversion by molar mass, not a printed value. Where “and” joins values, the source holds several entries; their conditions need not be identical. Equal values may be shown once.

Key:
Experiment in all cases: ≥ marks a high value that may be exact or a test limit, other limits are often not marked, values filed in µg/mL are converted to µM
[1] = tested on: Escherichia coli HP101BA 7601c
[2] = tested on: Micrococcus luteus PTCC 1625
[3] = tested on: Staphylococcus aureus PTCC 1431
[4] = tested on: Klebsiella pneumoniae PTCC 1388
[5] = tested on: Escherichia coli
[6] = tested on: Bifidobacterium longum subsp. infantis
[7] = tested on: Staphylococcus aureus
[8] = tested on: Pseudomonas aeruginosa 198
[9] = tested on: Pseudomonas aeruginosa LES400
[10] = tested on: Pseudomonas aeruginosa 9
[11] = tested on: Stenotrophomonas maltophilia ATCC 13637
[12] = tested on: Escherichia coli ESBL 63103
[13] = tested on: Escherichia coli ESBL 64771
[14] = tested on: Enterococcus faecium mic80
[15] = tested on: Enterococcus faecalis W61950
[16] = tested on: Enterococcus faecium t62764
[17] = tested on: Pseudomonas aeruginosa H1027
[18] = tested on: Pseudomonas aeruginosa PAO1 H103
[19] = tested on: Enterobacter cloacae 218R
[20] = tested on: Enterococcus faecalis f43559
[21] = tested on: Klebsiella pneumoniae ESBL 63575
[22] = tested on: Enterococcus faecalis ATCC 29212
[23] = tested on: Staphylococcus aureus ATCC 25923
[24] = tested on: Pseudomonas aeruginosa H1030
[25] = tested on: Staphylococcus aureus C623
[26] = tested on: Pseudomonas aeruginosa 213
[27] = tested on: Klebsiella pneumoniae ESBL 61962
[28] = tested on: Bacillus licheniformis X39
[29] = tested on: Serratia rubidaea X01
[30] = tested on: Psychrobacter faecalis X29
[31] = tested on: Staphylococcus carnosus KHS
[32] = tested on: Escherichia coli ATCC 25922
[33] = tested on: Candida albicans ATCC 10231
[34] = tested on: Rhodococcus rhodochrous X15
[35] = tested on: Enterococcus faecalis 981
[36] = tested on: Pseudomonas aeruginosa 11053
[37] = tested on: Escherichia coli ML-35p
[38] = tested on: Listeria monocytogenes EGD
[39] = tested on: Candida albicans 820
[40] = tested on: Escherichia coli BL21
[41] = tested on: Staphylococcus aureus ATCC 6538P
[42] = tested on: Staphylococcus aureus ATCC BAA-41
[43] = tested on: Staphylococcus epidermidis
[44] = tested on: Pseudomonas aeruginosa PAO1

CC(C)C[C@H](NC(=O)CNC(=O)[C@H](C)NC(=O)[C@@H](N)CCCN=C(N)N)C(=O)N[C@@H](CCCCN)C(=O)N[C@@H](Cc1ccccc1)C(=O)N1CCC[C@H]1C(=O)N[C@H](C(=O)NCC(=O)N[C@@H](CCCN=C(N)N)C(=O)N[C@H](C(=O)N[C@@H](Cc1cnc[nH]1)C(=O)N[C@@H](CCCN=C(N)N)C(=O)N[C@@H](CC(C)C)C(=O)N[C@@H](CC(C)C)C(=O)N[C@@H](CCCN=C(N)N)C(=O)O)C(C)C)C(C)C [RAGLKFPVGRVHRLLR] gave an MIC [1] of 9.6 µM (≈ 18 µg/mL), an MIC [2] of 6 µM (≈ 11.3 µg/mL) and an MIC [3] of 8.1 µM (≈ 15.2 µg/mL). The MIC [4] was 10.6 µM (≈ 19.9 µg/mL).

CC[C@H](C)[C@H](NC(=O)[C@H](CCC(N)=O)NC(=O)[C@@H](N)Cc1cnc[nH]1)C(=O)N[C@@H](Cc1ccc(O)cc1)C(=O)N1CCC[C@H]1C(=O)N[C@H](C(=O)N[C@H](C(=O)N[C@@H](CCC(N)=O)C(=O)N1CCC[C@H]1C(=O)N[C@@H](CC(C)C)C(=O)O)[C@@H](C)O)C(C)C [HQIYPVTQPL] was tested, and the MIC [5] was > 2510 µM, the MIC [6] was ≥ 2510 µM and the MIC [7] was > 2510 µM.

NCCCC[C@H](NC(=O)[C@H](CCCCN)NC(=O)[C@H](Cc1c[nH]c2ccccc12)NC(=O)[C@H](Cc1c[nH]c2ccccc12)NC(=O)[C@H](CCCN=C(N)N)NC(=O)[C@H](CCCCN)NC(=O)[C@@H](N)Cc1c[nH]c2ccccc12)C(=O)N[C@@H](Cc1c[nH]c2ccccc12)C(=O)N[C@@H](CCCN=C(N)N)C(=O)O [WKRWWKKWR] gave an MIC [8] of 21.2 µM (≈ 31 µg/mL), an MIC [9] of 11 µM (≈ 16 µg/mL) and an MIC [10] of 21.2 µM (≈ 31 µg/mL). It also gave an MIC [11] of 0.685 µM (≈ 1 µg/mL), an MIC [12] of 11 µM (≈ 16 µg/mL) and an MIC [13] of 1.37 µM (≈ 2 µg/mL). The MIC [14] was 11 µM (≈ 16 µg/mL), the MIC [15] was ≥ 87 µM and the MIC [16] was 2.74 µM (≈ 4 µg/mL). For the same molecule, the MIC [17] was 2.74 µM (≈ 4 µg/mL), the MIC [18] was 11 µM (≈ 16 µg/mL) and the MIC [19] was ≥ 43.2 µM. For the same molecule, the MIC [20] was ≥ 87 µM, the MIC [21] was 21.2 µM (≈ 31 µg/mL) and the MIC [22] was 43.2 µM (≈ 63 µg/mL). For the same molecule, the MIC [23] was 2.74 µM (≈ 4 µg/mL), the MIC [24] was 21.2 µM (≈ 31 µg/mL) and the MIC [25] was 2.74 µM (≈ 4 µg/mL). For the same molecule, the MIC [26] was ≥ 43.2 µM and the MIC [27] was ≥ 87 µM.

CC[C@H](C)[C@@H]1NC(=O)[C@H](CCCCN)NC(=O)[C@@H](NC(=O)[C@H](Cc2ccccc2)NC(=O)[C@H](CC(C)C)NC(=O)[C@@H](NC(=O)[C@@H]2CCCN2C(=O)[C@@H](NC(=O)[C@@H](NC(=O)[C@H](CCCCN)NC(=O)[C@H](CO)NC(=O)[C@H](C)NC(=O)[C@@H](NC(=O)[C@H](CC(N)=O)NC(=O)[C@H](CC(C)C)NC(=O)[C@H](CC(C)C)NC(=O)[C@@H](NC(=O)[C@H](CO)NC(=O)[C@H](CC(C)C)NC(=O)[C@@H](N)Cc2ccccc2)[C@@H](C)O)C(C)C)C(C)C)C(C)C)[C@@H](C)O)CSSC[C@@H](C(=O)O)NC(=O)[C@H](CCCCN)NC(=O)[C@H](CCCCN)NC(=O)[C@H]([C@@H](C)O)NC1=O [FLSTLLNVASKVVPTLFCKITKKC] gave an MIC [28] of 9 µM (≈ 23.9 µg/mL), an MIC [29] of 9 µM (≈ 23.9 µg/mL) and an MIC [30] of 9 µM (≈ 23.9 µg/mL). For the same molecule, the MIC [31] was 9 µM (≈ 23.9 µg/mL), the MIC [32] was 150 µM (≈ 398 µg/mL) and the MIC [33] was 150 µM (≈ 398 µg/mL). It also gave an MIC [34] of 2.3 µM (≈ 6.1 µg/mL), an MIC [35] of 9 µM (≈ 23.9 µg/mL) and an MIC [23] of 9 µM (≈ 23.9 µg/mL). The MIC [36] was ≥ 75 µM.

In the case of CC[C@H](C)[C@@H]1NC(=O)[C@H](CCCN=C(N)N)NC(=O)[C@@H]2CSSC[C@@H]3NC(=O)[C@H](C(C)C)NC(=O)CNC(=O)[C@H](Cc4ccccc4)NC(=O)[C@H](Cc4ccc(O)cc4)NC(=O)[C@H](C(C)C)NC(=O)[C@H](CCC(=O)O)NC(=O)[C@H](CC(C)C)NC(=O)CNC(=O)[C@H](CC(C)C)NC(=O)[C@H](CSSC[C@H](NC(=O)[C@H](CCCN=C(N)N)NC(=O)[C@H](CCCN=C(N)N)NC(=O)[C@H](C)NC(=O)[C@H](CC(C)C)NC(=O)[C@H](CCCN=C(N)N)NC(=O)CNC(=O)[C@H](Cc4cnc[nH]4)NC(=O)[C@H](CC(C)C)NC(=O)[C@H](Cc4ccccc4)NC3=O)C(=O)N[C@H](C(=O)N[C@@H](CCCN=C(N)N)C(=O)O)CSSC[C@H](NC(=O)[C@@H](NC(=O)[C@@H](N)CCCN=C(N)N)[C@@H](C)CC)C(=O)N[C@@H](CCCN=C(N)N)C(=O)N2)NC(=O)[C@H](CCCN=C(N)N)NC(=O)CNC1=O [RICRCRIGRCLGLEVYFGVCFLHGRLARRCCR], the MIC [37] is reported as 1.7 µM and 2.9 µM, the MIC [38] is reported as 2.1 µM and 1.9 µM and the MIC [39] is reported as 4 µM and 7.5 µM.

For CC[C@H](C)[C@H](NC(=O)[C@@H]1CCCN1C(=O)[C@H](CCC(N)=O)NC(=O)[C@@H]1CCCN1C(=O)[C@@H](NC(=O)[C@H](CCC(N)=O)NC(=O)[C@H](CCC(N)=O)NC(=O)[C@H](CCSC)NC(=O)[C@H](CC(C)C)NC(=O)[C@@H]1CCCN1C(=O)[C@H](CCC(N)=O)NC(=O)[C@H](CC(C)C)NC(=O)[C@H](CC(C)C)NC(=O)[C@@H]1CCCN1C(=O)[C@H](CC(C)C)NC(=O)[C@@H]1CCCN1C(=O)[C@H](CC(C)C)NC(=O)[C@@H](N)Cc1cnc[nH]1)C(C)C)C(=O)O [HLPLPLLQPLMQQVPQPI], the MIC [5] was > 1450 µM, the MIC [6] was ≥ 1450 µM and the MIC [7] was > 1450 µM.

Work on CC[C@H](C)[C@H](NC(=O)[C@H](CCCCN)NC(=O)[C@H](CCCCN)NC(=O)[C@H](Cc1ccccc1)NC(=O)[C@H](CCCCN)NC(=O)[C@H](CCCCN)NC(=O)[C@H](Cc1c[nH]c2ccccc12)NC(=O)[C@@H](N)CCCCN)C(=O)NCC(=O)N[C@@H](C)C(=O)N[C@H](C(=O)N[C@@H](CC(C)C)C(=O)N[C@@H](CCCCN)C(=O)N[C@@H](CCCCN)C(=O)N[C@@H](CC(C)C)C(=O)O)C(C)C [KWKKFKKIGAVLKKL] yielded an MIC [40] of 1.41 µM (≈ 2.57 µg/mL), an MIC [41] of 16 µM (≈ 29 µg/mL) and an MIC [42] of 16 µM (≈ 29 µg/mL). For the same molecule, the MIC [43] was 0.5 µM (≈ 0.908 µg/mL) and the MIC [44] was 1.41 µM (≈ 2.57 µg/mL).
